Reference: US20250388565A1, “ESTROGEN RECEPTOR ALPHA DEGRADERS AND METHODS OF USE THEREOF” (Relay Therapeutics, Inc., priority 2022, published 2025)

molecular target: T1, ERα protein (HiBiT-tagged) in ESR1_HiBiT KI MCF7 cells (Homo sapiens, UniProt P03372); test: Nano Glo HiBiT Lytic Degradation Assay; format: cell-based; settings: 6 hours with compound, 14-point dose response 1:3, bell-shape curve fit, half-maximal effect of first Hill model, read-out: MCF7 ESR1 HiBiT - (DC50)
T1 sequence (P03372 1-595): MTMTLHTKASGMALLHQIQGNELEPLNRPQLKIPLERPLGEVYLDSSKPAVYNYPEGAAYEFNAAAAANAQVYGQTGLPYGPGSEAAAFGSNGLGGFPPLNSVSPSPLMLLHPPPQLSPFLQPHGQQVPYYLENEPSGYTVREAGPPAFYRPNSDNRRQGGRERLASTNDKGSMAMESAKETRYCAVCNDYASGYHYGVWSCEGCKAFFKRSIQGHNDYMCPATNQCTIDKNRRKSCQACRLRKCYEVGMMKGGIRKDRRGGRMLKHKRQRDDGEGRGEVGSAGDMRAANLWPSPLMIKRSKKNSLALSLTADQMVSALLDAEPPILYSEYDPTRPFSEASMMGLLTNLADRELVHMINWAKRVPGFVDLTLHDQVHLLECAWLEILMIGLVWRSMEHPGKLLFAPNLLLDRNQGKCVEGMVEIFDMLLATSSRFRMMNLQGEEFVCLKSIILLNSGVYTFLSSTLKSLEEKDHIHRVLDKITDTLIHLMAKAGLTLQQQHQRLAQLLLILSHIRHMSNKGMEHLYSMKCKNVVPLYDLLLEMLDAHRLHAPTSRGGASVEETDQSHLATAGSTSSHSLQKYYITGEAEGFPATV
Outline: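 ESR1_HiBiT knock-in MCF7 cells were seeded 24 h before treatment, then exposed to compounds for 6 h at 37° C (14-point 1:3 curves, 10 mM top stock, 0.1% DMSO final, duplicates). HiBiT-ERα was read by lytic LgBiT luminescence, background-subtracted and normalized to DMSO. DC50 was taken from the half-maximal point of the first Hill component of a bell-shaped fit.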

SMILES | DC50
O=C1CCN(c2ccc(N3CCC4(CCN(CC5CCN(c6ccc([C@@H]7c8ccc(O)cc8C(F)(F)C[C@@H]7c7ccccc7)cc6)CC5)C4)CC3)cc2)C(=O)N1 [Compound I-292, 1-(4-(2-((1-(4-((1R,2S)-4,4-difluoro-6-hydroxy-2-phenyl-1,2,3,4-tetrahydronaphthalen-1-yl)phenyl)piperidin-4-yl)methyl)-2,8-diazaspiro[4.5]decan-8-yl)phenyl)dihydropyrimidine-2,4 (1H,3H)-dione] | 0.73 nM
Cn1nc(N2CCC(=O)NC2=O)c2ccc(N3CCN(CC4CCN(c5ccc([C@@H]6c7ccc(O)cc7CC[C@@H]6c6ccccc6)cc5)CC4)CC3)cc21 [Compound I-299, 1-(6-(4-((1-(4-((1R,2S)-6-hydroxy-2-phenyl-1,2,3,4-tetrahydronaphthalen-1-yl)phenyl)piperidin-4-yl)methyl)piperazin-1-yl)-1-methyl-1H-indazol-3-yl)dihydropyrimidine-2,4 (1H,3H)-dione] | 1 nM
Cn1nc(N2CCC(=O)NC2=O)c2ccc(N3CCN(CC4CCN(c5ccc([C@@H]6c7ccc(O)cc7C(F)(F)C[C@@H]6c6ccccc6)cc5)CC4)CC3)cc21 [Compound I-300, 1-(6-(4-((1-(4-((1R,2S)-4,4-difluoro-6-hydroxy-2-phenyl-1,2,3,4-tetrahydronaphthalen-1-yl)phenyl)piperidin-4-yl)methyl)piperazin-1-yl)-1-methyl-1H-indazol-3-yl)dihydropyrimidine-2,4 (1H,3H)-dione] | 3300 nM
O=C1CCC(n2cc3cc(N4CCN(CC5CCN(c6ccc([C@@H]7c8ccc(O)cc8CC[C@@H]7c7ccccc7)cc6)CC5)CC4)ccc3n2)C(=O)N1 (stereo partly shown) [Compound I-301] | 1 nM
O=C1CCC(n2ncc3cc(N4CCN(CC5CCN(c6ccc([C@@H]7c8ccc(O)cc8CC[C@@H]7c7ccccc7)cc6)CC5)CC4)ccc32)C(=O)N1 (stereo partly shown) [Compound I-302] | 2 nM
O=C1CC[C@H](N2Cc3cc(N4CCN(CC5CCN(c6ccc([C@H]7c8ccc(O)cc8C(F)(F)C[C@H]7c7ccccc7)c(F)c6)CC5)CC4)ccc3C2=O)C(=O)N1 [Compound I-307, (S)-3-(5-(4-((1-(4-((1R,2R)-4,4-difluoro-6-hydroxy-2-phenyl-1,2,3,4-tetrahydronaphthalen-1-yl)-3-fluorophenyl)piperidin-4-yl)methyl)piperazin-1-yl)-1-oxoisoindolin-2-yl)piperidine-2,6-dione] | 19 nM

Other lines, results leading:

DC50 | SMILES
0.7 nM | O=C1CCN(c2ccc(N3CCC4(CCN(CC5CCN(c6ccc([C@@H]7c8ccc(O)cc8CC[C@@H]7c7ccccc7)cc6)CC5)C4)CC3)cc2)C(=O)N1 [Compound I-291, 1-(4-(2-((1-(4-((1R,2S)-6-hydroxy-2-phenyl-1,2,3,4-tetrahydronaphthalen-1-yl)phenyl)piperidin-4-yl)methyl)-2,8-diazaspiro[4.5]decan-8-yl)phenyl)dihydropyrimidine-2,4 (1H,3H)-dione]
0.52 nM | Cc1cc(N2CCC3(CCN(CC4CCN(c5ccc([C@@H]6c7ccc(O)cc7CC[C@@H]6c6ccccc6)cc5)CC4)C3)CC2)ccc1N1CCC(=O)NC1=O [Compound I-293]
0.32 nM | O=C1CCC(N2Cc3cc(N4CCN(CC5CCN(c6ccc([C@@H]7c8ccc(O)cc8C(F)(F)C[C@@H]7c7ccccc7)cc6)CC5)CC4)ccc3C2=O)C(=O)N1 (stereo partly drawn) [Compound I-305, 3-(5-(4-((1-(4-((1R,2S)-4,4-difluoro-6-hydroxy-2-phenyl-1,2,3,4-tetrahydronaphthalen-1-yl)phenyl)piperidin-4-yl)methyl)piperazin-1-yl)-1-oxoisoindolin-2-yl)piperidine-2,6-dione]
0.6 nM | O=C1CC[C@@H](N2Cc3cc(N4CCN(CC5CCN(c6ccc([C@@H]7c8ccc(O)cc8C(F)(F)C[C@@H]7c7ccccc7)cc6)CC5)CC4)ccc3C2=O)C(=O)N1 [Compound I-306, (R)-3-(5-(4-((1-(4-((1R,2S)-4,4-difluoro-6-hydroxy-2-phenyl-1,2,3,4-tetrahydronaphthalen-1-yl)phenyl)piperidin-4-yl)methyl)piperazin-1-yl)-1-oxoisoindolin-2-yl)piperidine-2,6-dione]
